Columns and labels:
[1] = system: HeLa cells; test: MTT anti-proliferation assay, HeLa; format: cell-based, human; conditions: Homo sapiens, 48 h, mean ± SD
Procedure: All cell types, at a volume of 200 µL per well, were inoculated in 96-well plates at a density of 2.5 × 10^4 cells / mL and cultured for 24 h in an incubator with 5% CO2 at 37 °C. The old culture medium was replaced with 200 µL of fresh medium per well containing positive compounds, at concentrations of 1, 6.25, 12.5, 25, 50, and 100 μM. After 48 h of culture, 20 µL per well of 5 mg·mL^−1 MTT solution was added. After 4 h of culture, the old solution was discarded, and 150 µL per well of DMSO solution was added. Using an enzyme labeler (Thermo Fisher Scientific, Multiskan GO, Waltham, MA, USA), the plates were shaken for 10 min, OD values were determined at 490 nm, and the inhibition rate was calculated. Non-linear regression fitting of the cell growth rate was carried out using SPSS 23.0, and the IC50 of the compound was calculated. The inhibition rate was calculated using the formula: [(ODempty − ODtest)/(ODempty − ODnegative group)] × 100%, (ODempty blank group absorbance, ODtest absorbance of administration group, ODnegative group without cell culture medium). Each group contained six compound holes, and the experimental results averaged three trials. Complete medium containing only cells was used as the blank control; a complete medium without cells as was used as the negative control; and cisplatin, paclitaxel, and adriamycin were used as the positive controls. The concentration gradient was the same as that used for compounds 3a–3p. […]

[2] = system: HeLa/DDP cells; test: MTT anti-cisplatin-resistant cervical cancer activity, HeLa/DDP; format: cell-based, human; conditions: 48 h; for resistance index (RI): HeLa/DDP versus parental HeLa; for IC50: Homo sapiens, HeLa/DDP, MTT, mean ± SD
Procedure: (§1) All cell types, at a volume of 200 µL per well, were inoculated in 96-well plates at a density of 2.5 × 10^4 cells / mL and cultured for 24 h in an incubator with 5% CO2 at 37 °C. The old culture medium was replaced with 200 µL of fresh medium per well containing positive compounds, at concentrations of 1, 6.25, 12.5, 25, 50, and 100 μM. After 48 h of culture, 20 µL per well of 5 mg·mL^−1 MTT solution was added. After 4 h of culture, the old solution was discarded, and 150 µL per well of DMSO solution was added. Using an enzyme labeler (Thermo Fisher Scientific, Multiskan GO, Waltham, MA, USA), the plates were shaken for 10 min, OD values were determined at 490 nm, and the inhibition rate was calculated. Non-linear regression fitting of the cell growth rate was carried out using SPSS 23.0, and the IC50 of the compound was calculated. The inhibition rate was calculated using the formula: [(ODempty − ODtest)/(ODempty − ODnegative group)] × 100%, (ODempty blank group absorbance, ODtest absorbance of administration group, ODnegative group without cell culture medium). Each group contained six compound holes, and the experimental results averaged three trials. Complete medium containing only cells was used as the blank control; a complete medium without cells as was used as the negative control; and cisplatin, paclitaxel, and adriamycin were used as the positive controls. The concentration gradient was the same as that used for compounds 3a–3p.
To mitigate the detrimental consequences arising from the fixation of resistance reversal agents, concentrations that yielded a tumor cell proliferation rate reduction of less than 10% were selected. Consequently, the inhibitory efficacy of compound 3k against HeLa/DDP cells was assessed in conjunction with cisplatin at concentrations of 0.25, 0.5, and 1 μM. The experimental procedure employed was akin to that elucidated in Section 3.3.2. The impact of verapamil (6 μM) and 3k (0.25, 0.5, and 1 μM) on P-gp expression was ascertained via Western blot experiments, employing the same methodology delineated in Section 3.3.4.

[3] = system: HeLa cells; test: Transwell Matrigel invasion assay, HeLa; format: cell-based, human; conditions: 24 h, 20 μM
Procedure: (§2) The Transwell ([…], Corning Incorporated, New York, NY, USA) was precoated using 50 μL Matrigel for 5 h at 37 °C to achieve solidification. HeLa cells was collected and suspended in a serum-free medium containing varying concentrations (0, 2.5, 5, and 10 μM) of compound 3k, along with 20 μM cisplatin and chalcone. These cell suspensions were then added to the upper wells of a permeabilization chamber at a density of 5 × 10^5 cells/mL. In the lower wells, 600 μL of DMEM containing 10% FBS was added, which had been prepared using 50 μL of Matrigel (diluted 1:8 with serum-free medium from Corning/BD Biosciences). After 24 h of incubation at 37 °C, the invasion cells were fixed using 4% paraformaldehyde and stained using 0.1% crystal violet for 30 min. Then, the chambers were washed using PBS and left to dry. Images were photographed using an inverted fluorescence microscope (Leica Instruments Co., Ltd., Microsystems CMS GmbH, Weizler, Hesse, Germany) and counted using Image J software (V1.8.0.112) for three independent fields randomly.

[4] = system: SiHa cells; test: MTT anti-proliferation assay, SiHa; format: cell-based, human; conditions: Homo sapiens, 48 h, mean ± SD
Procedure: as §1

[5] = system: HeLa/DDP cells; test: Transwell Matrigel invasion assay, HeLa/DDP; format: cell-based, human; conditions: 24 h, 20 μM, control 399
Procedure: as §2
(§3) The experimental methods for the effects of compound 3k, cisplatin, and chalcone on HeLa/DDP cell invasion and migration were the same as in Section 3.3.6.

[6] = system: C33A cells; test: MTT anti-proliferation assay, C33A; format: cell-based, human; conditions: Homo sapiens, C-33-A, 48 h, mean ± SD
Procedure: as §1

[7] = system: HeLa cells; test: Transwell migration assay, HeLa; format: cell-based, human; conditions: 24 h, 20 μM, control 1176
Procedure: (§4) HeLa (5 × 10^4 cells) was suspended in 200 μL of FBS-free medium. The top chamber contained the vehicle and various concentrations of compound 3k (2.5, 5, and 10 μM), cisplatin (20 μM) and chalcone (20 μM). The lower chamber was filled with 600 μL of medium containing 10% FBS. After incubating at 37 °C for 24 h, the cells on the top side of the Transwell membrane were removed with a cotton tip. Cells were fixed and stained with 4% paraformaldehyde (LEAGENE BIOTECHNOLOGY, Cat:DF0135, Lot:0823A23, Zhongguancun, Haidian District, Beijing, China) and 0.1% crystal violet solutions (Leagene Biotechnology, Cat:DZ0055, Lot:0508A23, Zhongguancun, Haidian District, Beijing, China) for 30 min to fix cells trapped on the perforated side of the membrane.

[8] = system: HeLa/DDP cells; test: Annexin V-FITC/PI pro-apoptosis assay, HeLa/DDP; format: cell-based, human; conditions: 24 h, 20 μM
Procedure: Cell fluid (2 mL per well) at a concentration of 1.5 × 10^5 cells / mL was added to a 6-well plate and cultured in a cell incubator with 5% CO2 at 37 °C for 24 h. The old solution was discarded; 2 mL of the medium containing compound 3k was added to each well at a concentration gradient of 2.5, 5, and 10 μM; and the experiment was repeated three times at each concentration. Complete medium containing only cells was used as a blank control group, and 20 μM of cisplatin injection and chalcone was used as a positive control. Cells were harvested following a 24 h incubation period, adhering to the guidelines provided with the BD kit (BD Biosciences Pharmingen, 556547, 10975 Torreyana Road, San Diego, CA, USA). Subsequently, the cells were subjected to staining in a light-restricted environment at ambient temperature for a duration of 15 min, followed by filtration and analysis via flow cytometry.
The pro-apoptotic experiments of compound 3k, cisplatin, and chalcone on HeLa/DDP were performed in the same way as in Section 3.3.3. Western Blotting Analysis in the same way as in Section 3.3.4.

[9] = system: human cervical epithelial cells H8; test: MTT toxicity assay, normal cervical epithelial cells H8; format: cell-based; conditions: Homo sapiens, Epithelial cell, 48 h, mean ± SD
Procedure: as §1

[10] = system: HeLa/DDP cells; test: Transwell migration assay, HeLa/DDP; format: cell-based, human; conditions: 24 h, 20 μM, control 497
Procedure: as §4, §3

[11] = system: α-/β-tubulins in HeLa cells; test: Western blot of polymerized and dissociated α-/β-tubulins, HeLa; format: cell-based, human; conditions: 24 h, versus control; for expression of dissociated state α and β microtubule proteins: 3k 4 μM, colchicine 2 μM, paclitaxel 2.0 μM; for expression of α and β microtubule proteins in the polymerized state: 3k 2 and 4 μM, colchicine and paclitaxel 2.0 μM
Procedure: (§5) HeLa cells were cultured in 60 mm Petri dishes at a density of 1.0 × 10^6 cells per dish and treated with 0.1% DMSO (vehicle), positive control chalcone (20 μM), and different concentrations of compound 3k (2.5, 5, and 10 μM), respectively. Following a 24 and 48 h incubation period, the cells were harvested via centrifugation and subsequently washed twice with PBS that had been chilled to 0 °C. Next, the cells were homogenized using RIPA lysis buffer (Solarbio, Beijing, China) and supplemented with 1% PMSF (MP Biomedicals, 0754-25G, CAS:329-98-6, Santa Ana, CA, USA) and 1% mixed phosphatase inhibitor (Solarbio, Beijing, China). The resulting lysates were then incubated on ice for 30 min, intermittently vortexed every 5 min, and subsequently centrifuged at 12,000 rpm for 20 min to collect the supernatants.
(§6) Subsequently, the protein concentrations were determined utilizing a BCA Protein Assay Kit (Solarbio, China). An equivalent quantity of the proteins (12 μg) was fractionated via 8–12% sodium dodecyl sulfate–polyacrylamide gel electrophoresis (SDS-PAGE) and transferred onto nitrocellulose membranes (Amersham Biosciences, Amersham, UK). Following this, the membranes were obstructed with 5% nonfat dried milk in TBS containing 1% Tween-20 for a duration of 2 h at ambient temperature and were subjected to overnight incubation with specific primary antibodies (CST, Boston, MA, USA) at 4 °C. Following three washes in TBST, the membranes were subjected to incubation with the suitable HRP-conjugated secondary antibodies at ambient temperature for a duration of 2 h. The blots were subsequently visualized using enhanced chemiluminescence (Biosharp, Shanghai, China) and detected utilizing a PE 0723 imager (ProteinSimple, Silicon Valley, CA, USA). Each experiment was conducted in triplicate at minimum and analyzed employing Image J software (V1.8.0.112). β-actin(ab198991) rabbit mAb, goat anti-rabbit IgG (H + L) HRP—#S0001 (Affinity). Bax (ab289364), Bcl-2 (ab218123), MDR1/ABCB1 (E1Y7B) rabbit mAb #13342 (CST).
(§7) Polymerized and free microtubule proteins were extracted using the methods described in references, respectively. Following drug intervention, the cells were subjected to two washes with preheated microtubule protein buffer MTSB at 37 °C. Subsequently, 70 μL of MTSB was added, and the cells were lysed for 10 min at 37 °C in a constant temperature chamber shielded from light. The cells were then scraped with a spatula and centrifuged at 14,000 r/min for 10 min at room temperature. The resulting supernatant, which represented the free state microtubule protein suspension, was subsequently removed. The remaining precipitate was treated with RIPA lysis solution, followed by lysis on ice for a duration of 30 min. Subsequently, centrifugation was performed at a temperature of 4 °C and a speed of 12,000 revolutions per minute for a duration of 20 min. The resulting supernatant was collected as a suspension of polymerized microtubule protein. The Western blotting procedure was the same as in Section 3.3.4. α-Tubulin (DM1A) Mouse mAb#3873 (CST), β-Tubulin (D2N5G) Rabbit mAb #15115 (CST), CoraLite488-conjugated Goat Anti-Mouse lgG(H+L) (Proteintech); CoraLite488-conjugated Goat Anti-Rabbit lgG(H+L) (Proteintech); β-actin(ab198991) rabbit mAb, Goat Anti-Mouse IgG H&L (HRP) (ab6789); Goat anti-Rabbit IgG (H+L) HRP—#S0001 (Affinity).

[12] = system: α-/β-tubulins in HeLa/DDP cells; test: Western blot of polymerized and dissociated α-/β-tubulins, HeLa/DDP; format: cell-based, human; conditions: 24 h, versus control; for expression of dissociated state α and β microtubule proteins: 3k 4 μM, colchicine and paclitaxel 2.0 μM; for expression of polymerized state α and β microtubule proteins: positive drugs 2.0 μM
Procedure: as §5, §6, §7

[13] = system: α-tubulin, β-tubulin in HeLa/DDP cells; test: Immunofluorescence assay of microtubules, HeLa/DDP; format: cell-based, human; conditions: 24 h, 3k 1, 2, and 4 μM, paclitaxel 2.0 μM
Procedure: (§8) The cells were then fixed by adding 400 μL of 4% paraformaldehyde to each well and incubating for 30 min. 0.1% Triton was added at a volume of 400 μL per well and allowed to incubate for 10 min. Following this, goat serum (10%) was added at 400 μL per well and incubated for 40 min. Primary antibodies (α-tubulin, β-tubulin) were then incubated overnight at a temperature of 4 °C. Subsequently, secondary antibodies (α-mouse, β-rabbit) were incubated for 1.5 h. DAPI staining was performed at 400 μL per well for 5 min, followed by a wash with PBS. Cell climbing tablets were removed and inverted onto slides with sealer. Photographs were captured using a fluorescent inverted microscope.

[14] = system: α-tubulin, β-tubulin in HeLa cells; test: Immunofluorescence assay of microtubules, HeLa; format: cell-based, human; conditions: 24 h, 3k 1, 2, and 4 μM, colchicine and paclitaxel 2.0 μM
Procedure: as §8

For `O=C(/C=C/c1ccccc1)c1ccccc1` [Chalcone, (E)-chalcone], the IC50 [1] was 67 ± 4.56 µM, the “resistance index (RI)” value [2] was 1.31 and the IC50 [2] was 88 ± 7.27 µM. For the same compound, the “number of cells undergoing invasion” value [3] was 422, the IC50 [4] was 62 ± 1.84 µM and the “number of invasion cells” value [5] was 347. For the same compound, the IC50 [6] was 37.5 ± 1.5 µM, the “number of migrated cells” value [7] was 689 and the pro-apoptotic rate [8] was 13.8%. For the same compound, the IC50 [9] was 78.5 ± 7.78 µM and the “number of migrated cells” value [10] was 319.
`CC(=O)O[C@H]1C(=O)[C@@]2(C)[C@H]([C@H](OC(=O)c3ccccc3)[C@]3(O)C[C@H](OC(=O)[C@H](O)[C@@H](NC(=O)c4ccccc4)c4ccccc4)C(C)=C1C3(C)C)[C@]1(OC(C)=O)CO[C@@H]1C[C@@H]2O` [Paclitaxel, paclitaxel] was tested, and the “expression of dissociated state α and β microtubule proteins” value [11] was “significantly decreased”, the “expression of α and β microtubule proteins in the polymerized state” value [11] was “significantly enhanced” and the IC50 [1] was 23 ± 1.33 µM. The “resistance index (RI)” value [2] was 5.66, the IC50 [2] was 130 ± 5.84 µM and the “expression of dissociated state α and β microtubule proteins” value [12] was “minimal impact”. The “expression of polymerized state α and β microtubule proteins” value [12] was “did not yield a significant impact”, the “microtubule immunofluorescence (α green, β red)” value [13] was “no significant alteration in the fluorescence intensity of the microtubules surrounding the cells” and the “microtubule immunofluorescence (α green, β red)” value [14] was “fluorescence intensity of microtubules surrounding the cells decreased or vanished”.
In the case of `COc1cc2c(c(OC)c1OC)-c1ccc(OC)c(=O)cc1[C@@H](NC(C)=O)CC2` [colchicine], the “expression of dissociated state α and β microtubule proteins” value [11] is reported as “significantly increased”, the “expression of α and β microtubule proteins in the polymerized state” value [11] is reported as “decrease” and the “expression of dissociated state α and β microtubule proteins” value [12] is reported as “increase”. For the same compound, the “expression of polymerized state α and β microtubule proteins” value [12] was “significant decrease”.

Reference: article PMC10707934, “Design and Synthesis of Novel α-Methylchalcone Derivatives, Anti-Cervical Cancer Activity, and Reversal of Drug Resistance in HeLa/DDP Cells” (Molecules, 2023)
